Earlier results in US20140099366A1, “Composition Containing Two Anti-Dementia Drugs” (priority 2005, published 2014).
Counter-ions that a name gives are not always drawn.

System: patients with moderate to severe Alzheimer-type dementia
Details: added to donepezil hydrochloride already administered, compared to placebo group

Compound: CC12CC3CC(C)(C1)CC(N)(C3)C2 [memantine hydrochloride]
- cognitive ability and activities of daily living: improved
